# Reference: paper PMC10762078, “Role of UPF1-LIN28A interaction during early differentiation of pluripotent stem cells” (Nature Communications, 2024)
# Key:
# CHA15 cells = assay: Flow cytometry (FACS) of OCT4- and NANOG-positive cells (Fig. 6c, Supplementary Fig. 6b); assay type: cell-based, human
# Description: (§1) For CPP-conjugated peptide delivery, HeLa, 293T, and PA-1 cells were incubated with CPP-conjugated peptides or CPP-FITC at 2 μM in DMEM with 10% FBS for 12 h a day before cell harvest. hPSCs were treated with CPP-conjugated peptides at 10 μM in mTeSR Plus Medium, and the peptide-containing medium was changed every day over 10 days. The ROCK inhibitor (Tocris Bioscience, Y-27632) treated-hPSCs were dissociated into single cells using Accutase (Merck, SCR005) and differentiated into ectoderm, mesoderm, and endoderm using the STEMdiff Trilineage Differentiation Kit ([…] Technologies, 05230) following the manufacturer’s protocol. Differentiated cells treated with CPP-conjugated peptides were analysed at 0, 3, and 5 days for ectoderm and endoderm, and at 0, 3, and 4 days for mesoderm.
# To evaluate the relative cell number expressing the indicated proteins, CHA15 cells with the indicated CPP-conjugated peptide were fixed with BD Cytofix Fixation Buffer (BD Biosciences Pharmingen, 554655) followed by permeabilization with 0.1% BSA/PBS solution supplemented with 10% NGS and 0.3% Triton X-100 for 1 h at 4 °C. After washing, cells were incubated with the primary antibodies (OCT4 1:1000, NANOG 1:1000, DLK1 1:1000, SOX2 1:1000, LHX2 1:1000) and then, secondary antibody, Alexa Fluor 488 (1:1000), was applied. The positive cells were determined using flow cytometry (FACSCanto, BD Pharmingen), and data was analysed using the Flow Jo-v10 software program.
# hPSCs = assay: RT-qPCR of pluripotency and germ-layer markers during differentiation with CPP-peptides (Supplementary Fig. 7b-e); assay type: cell-based, human; conditions: for CXCR4 (RT-qPCR) / FOXA1 (RT-qPCR) / GATA4 (RT-qPCR) / SOX17 (RT-qPCR): Fig. s7e; for BMP2 mRNA level (RT-qPCR) / BMP4 mRNA level (RT-qPCR) / CDH2 mRNA level (RT-qPCR) / CXCR4 mRNA level (RT-qPCR) / SNAI1 mRNA level (RT-qPCR) / TBXT mRNA level (RT-qPCR): Fig. s7d
# Description: as §1, with “mesoderm. […]” for “mesoderm.”
# cDNA was synthesised using RevertAid Reverse Transcriptase (Thermo Fisher Scientific, EP0441) with synthesised random hexamer (Macrogen) for total RNA or stem-loop primers for miRNA. For RT-qPCR reactions, the SensiFAST SYBR No-ROX kit (Meridian Bioscience) was used according to the manufacturer’s protocol. All data analysis and visualisation were conducted using R 3.6.1 [www.r-project.org] or GraphPad Prism 10. RT primers for miRNA and RT-qPCR primer sequences are provided in Supplementary Data 6. […]
# FPKM of each gene was presented f r om RNA-seq analysis. b–e hPSCs wer e treated with the indicated peptide during each germ la ye r differentiation. […]
# An unpaired Student’s t-test was used for a–e. Data are presented as mean values ± SEM. All statistical test us ed wer e two-s ided. T he m inim um number of independent biological replicate experim ents was a–f n = 3. T he experiments wer e conducted three tim es, each iteration producing consistent results.
# [1] = CHA15, CPP-peptide 10 μM, mean of 3 sets
substance,measurement,setting,value
"N-MPELQKLQQLKDE-C [P2, peptide derived from the UPF1 (419–700) domain]","NANOG-positive cells, FACS (relative), mean",CHA15 cells; [1],0.969
same,"OCT4-positive cells, FACS (relative), mean",CHA15 cells; [1],0.9851
same,"NANOG FACS, difference between means vs P1 ± SEM","CHA15 cells; CHA15, vs CPP-P1",-0.03103 ± 0.01235
same,"OCT4 FACS, difference between means vs P1 ± SEM","CHA15 cells; CHA15, vs CPP-P1",-0.01489 ± 0.005688
same,CXCR4 (RT-qPCR),"hPSCs; Day 0, replicate 1",1.088
same,CXCR4 (RT-qPCR),"hPSCs; Day 0, replicate 2",0.7848
same,CXCR4 (RT-qPCR),"hPSCs; Day 0, replicate 3",1.127
same,CXCR4 (RT-qPCR),"hPSCs; Day 3, replicate 1",897.043
same,CXCR4 (RT-qPCR),"hPSCs; Day 3, replicate 2",593.555
same,CXCR4 (RT-qPCR),"hPSCs; Day 3, replicate 3",261.141
same,CXCR4 (RT-qPCR),"hPSCs; Day 5, replicate 1",674.407
same,CXCR4 (RT-qPCR),"hPSCs; Day 5, replicate 2",690.257
same,CXCR4 (RT-qPCR),"hPSCs; Day 5, replicate 3",509.637
same,FOXA1 (RT-qPCR),"hPSCs; Day 0, replicate 1",1.247
same,FOXA1 (RT-qPCR),"hPSCs; Day 0, replicate 2",1.413
same,FOXA1 (RT-qPCR),"hPSCs; Day 0, replicate 3",0.3396
same,FOXA1 (RT-qPCR),"hPSCs; Day 3, replicate 1",120.605
same,FOXA1 (RT-qPCR),"hPSCs; Day 3, replicate 2",127.453
same,FOXA1 (RT-qPCR),"hPSCs; Day 3, replicate 3",128.785
same,FOXA1 (RT-qPCR),"hPSCs; Day 5, replicate 1",296.789
same,FOXA1 (RT-qPCR),"hPSCs; Day 5, replicate 2",436.764
same,FOXA1 (RT-qPCR),"hPSCs; Day 5, replicate 3",611.507
same,BMP2 mRNA level (RT-qPCR),"hPSCs; Day 0, replicate 1",0.8054
same,BMP4 mRNA level (RT-qPCR),"hPSCs; Day 0, replicate 1",1.545
same,CDH2 mRNA level (RT-qPCR),"hPSCs; Day 0, replicate 1",1.016
same,CXCR4 mRNA level (RT-qPCR),"hPSCs; Day 0, replicate 1",0.9995
same,SNAI1 mRNA level (RT-qPCR),"hPSCs; Day 0, replicate 1",1.4406
same,TBXT mRNA level (RT-qPCR),"hPSCs; Day 0, replicate 1",1.3
same,BMP2 mRNA level (RT-qPCR),"hPSCs; Day 0, replicate 2",1.199
same,BMP4 mRNA level (RT-qPCR),"hPSCs; Day 0, replicate 2",0.6508
same,CDH2 mRNA level (RT-qPCR),"hPSCs; Day 0, replicate 2",0.7569
same,CXCR4 mRNA level (RT-qPCR),"hPSCs; Day 0, replicate 2",1.121
same,SNAI1 mRNA level (RT-qPCR),"hPSCs; Day 0, replicate 2",0.9418
same,TBXT mRNA level (RT-qPCR),"hPSCs; Day 0, replicate 2",0.8652
same,BMP2 mRNA level (RT-qPCR),"hPSCs; Day 0, replicate 3",0.9954
same,BMP4 mRNA level (RT-qPCR),"hPSCs; Day 0, replicate 3",0.8046
same,CDH2 mRNA level (RT-qPCR),"hPSCs; Day 0, replicate 3",1.227
same,CXCR4 mRNA level (RT-qPCR),"hPSCs; Day 0, replicate 3",0.8798
same,SNAI1 mRNA level (RT-qPCR),"hPSCs; Day 0, replicate 3",0.6176
same,TBXT mRNA level (RT-qPCR),"hPSCs; Day 0, replicate 3",0.8351
same,BMP2 mRNA level (RT-qPCR),"hPSCs; Day 3, replicate 1",1.083
same,BMP4 mRNA level (RT-qPCR),"hPSCs; Day 3, replicate 1",30.6184
same,CDH2 mRNA level (RT-qPCR),"hPSCs; Day 3, replicate 1",23.3268
same,CXCR4 mRNA level (RT-qPCR),"hPSCs; Day 3, replicate 1",950.283
same,SNAI1 mRNA level (RT-qPCR),"hPSCs; Day 3, replicate 1",22.3091
same,TBXT mRNA level (RT-qPCR),"hPSCs; Day 3, replicate 1",6339.58
same,BMP2 mRNA level (RT-qPCR),"hPSCs; Day 3, replicate 2",0.8465
same,BMP4 mRNA level (RT-qPCR),"hPSCs; Day 3, replicate 2",25.9141
same,CDH2 mRNA level (RT-qPCR),"hPSCs; Day 3, replicate 2",19.1392
same,CXCR4 mRNA level (RT-qPCR),"hPSCs; Day 3, replicate 2",710.257
same,SNAI1 mRNA level (RT-qPCR),"hPSCs; Day 3, replicate 2",18.7714
same,TBXT mRNA level (RT-qPCR),"hPSCs; Day 3, replicate 2",5442.29
same,BMP2 mRNA level (RT-qPCR),"hPSCs; Day 3, replicate 3",1.108
same,BMP4 mRNA level (RT-qPCR),"hPSCs; Day 3, replicate 3",28.7876
same,CDH2 mRNA level (RT-qPCR),"hPSCs; Day 3, replicate 3",24.2422
same,CXCR4 mRNA level (RT-qPCR),"hPSCs; Day 3, replicate 3",582.163
same,SNAI1 mRNA level (RT-qPCR),"hPSCs; Day 3, replicate 3",15.4609
same,TBXT mRNA level (RT-qPCR),"hPSCs; Day 3, replicate 3",8084.66
same,BMP2 mRNA level (RT-qPCR),"hPSCs; Day 4, replicate 1",0.2114
same,BMP4 mRNA level (RT-qPCR),"hPSCs; Day 4, replicate 1",7.214
same,CDH2 mRNA level (RT-qPCR),"hPSCs; Day 4, replicate 1",11.5611
same,CXCR4 mRNA level (RT-qPCR),"hPSCs; Day 4, replicate 1",685.489
same,SNAI1 mRNA level (RT-qPCR),"hPSCs; Day 4, replicate 1",15.012
same,TBXT mRNA level (RT-qPCR),"hPSCs; Day 4, replicate 1",2940.28
same,BMP2 mRNA level (RT-qPCR),"hPSCs; Day 4, replicate 2",0.2729
same,BMP4 mRNA level (RT-qPCR),"hPSCs; Day 4, replicate 2",9.74
same,CDH2 mRNA level (RT-qPCR),"hPSCs; Day 4, replicate 2",14.1794
same,CXCR4 mRNA level (RT-qPCR),"hPSCs; Day 4, replicate 2",388.959
same,SNAI1 mRNA level (RT-qPCR),"hPSCs; Day 4, replicate 2",19.2435
same,TBXT mRNA level (RT-qPCR),"hPSCs; Day 4, replicate 2",3606.85
same,BMP2 mRNA level (RT-qPCR),"hPSCs; Day 4, replicate 3",0.3615
same,BMP4 mRNA level (RT-qPCR),"hPSCs; Day 4, replicate 3",11.782
same,CDH2 mRNA level (RT-qPCR),"hPSCs; Day 4, replicate 3",17.5421
same,CXCR4 mRNA level (RT-qPCR),"hPSCs; Day 4, replicate 3",349.009
same,SNAI1 mRNA level (RT-qPCR),"hPSCs; Day 4, replicate 3",14.5806
same,TBXT mRNA level (RT-qPCR),"hPSCs; Day 4, replicate 3",4470.07
same,GATA4 (RT-qPCR),"hPSCs; Day 0, replicate 1",0.7242
same,GATA4 (RT-qPCR),"hPSCs; Day 0, replicate 2",1.3517
same,GATA4 (RT-qPCR),"hPSCs; Day 0, replicate 3",0.9241
same,GATA4 (RT-qPCR),"hPSCs; Day 3, replicate 1",32.2036
same,GATA4 (RT-qPCR),"hPSCs; Day 3, replicate 2",43.7097
same,GATA4 (RT-qPCR),"hPSCs; Day 3, replicate 3",38.0896
same,GATA4 (RT-qPCR),"hPSCs; Day 5, replicate 1",51.4498
same,GATA4 (RT-qPCR),"hPSCs; Day 5, replicate 2",54.8514
same,GATA4 (RT-qPCR),"hPSCs; Day 5, replicate 3",109.794
same,SOX17 (RT-qPCR),"hPSCs; Day 0, replicate 1",1.264
same,SOX17 (RT-qPCR),"hPSCs; Day 0, replicate 2",0.8709
same,SOX17 (RT-qPCR),"hPSCs; Day 0, replicate 3",0.8647
same,SOX17 (RT-qPCR),"hPSCs; Day 3, replicate 1",1792.04
same,SOX17 (RT-qPCR),"hPSCs; Day 3, replicate 2",907.999
same,SOX17 (RT-qPCR),"hPSCs; Day 3, replicate 3",1484.43
same,SOX17 (RT-qPCR),"hPSCs; Day 5, replicate 1",1721.02
same,SOX17 (RT-qPCR),"hPSCs; Day 5, replicate 2",1190.77
same,SOX17 (RT-qPCR),"hPSCs; Day 5, replicate 3",1778.6
